This data set relates to high-risk infants. Also on record: species or system human. The conditions noted are these: in vivo. The source says:
High-risk infants were identified using parental history of atopic disease and were randomized to either the skin treatment regimen and composition or standard routine care, each set forth below, from soon after recruitment in the postnatal ward (approximately 4 day) until eight weeks of age. Both the intervention and standard of care groups were advised to use a standardized bathing routine for the first 2 months. • Skin treatment regimen and composition: twice daily whole-body application of […] & Long-Lasting Balm, which on pack contains the following ingredients: glycerin, aqua, cetearyl alcohol, isocetyl alcohol, dimethicone, cetyl alcohol, Avena sativa kernel flour, Avena sativa kernel extract, Avena sativa kernel oil, caprylic/capric triglyceride, ceramide 3, ethylhexylglycerin, p-anisic acid, sodium cetearyl sulfate, palmitic acid, stearic acid, sodium sulfate, sodium chloride, citric acid, dipotassium phosphate, potassium phosphate, sodium hydroxide, tocopherol, benzyl alcohol, benzoic acid, and potassium sorbate. • Control: Standard routine care, which involves no use of moisturizer for the first two months. Within approximately 4 days of birth, infants were randomized to either treatment with skin treatment regimen and composition or to standard routine skincare with no moisturizer until 2 months of age. […]

“AVEENO® Dermexa Fast & Long-Lasting Balm [Intervention]”: the “Infants advised to stop applying the emollient after developing a rash with a potential temporal relationship with the emollient” value is reported as “One” and the Parent-reported skin infections worked out at 5%.

Source of the values: patent US12138286B2, “Combination method for treating or preventing childhood atopic disease” (Johnson & Johnson Consumer Inc., priority 2022, dated 2024).
